Assay results: US9249105B2, “Crystalline forms of an alkoxyimidazol-1-ylmethyl biphenyl carboxylic acid” (Theravance Biopharma R&D IP, LLC, priority 2010, dated 2016)
pKi: −log10 of the molar value. Structures can show the parent of a compound that is named as a salt.

Tests used:
AT1 receptor = biological target: T1, AT1 receptor (Homo sapiens, UniProt P30556); test: AT1 receptor binding (inhibitory constant)
T1 sequence (P30556 1-359): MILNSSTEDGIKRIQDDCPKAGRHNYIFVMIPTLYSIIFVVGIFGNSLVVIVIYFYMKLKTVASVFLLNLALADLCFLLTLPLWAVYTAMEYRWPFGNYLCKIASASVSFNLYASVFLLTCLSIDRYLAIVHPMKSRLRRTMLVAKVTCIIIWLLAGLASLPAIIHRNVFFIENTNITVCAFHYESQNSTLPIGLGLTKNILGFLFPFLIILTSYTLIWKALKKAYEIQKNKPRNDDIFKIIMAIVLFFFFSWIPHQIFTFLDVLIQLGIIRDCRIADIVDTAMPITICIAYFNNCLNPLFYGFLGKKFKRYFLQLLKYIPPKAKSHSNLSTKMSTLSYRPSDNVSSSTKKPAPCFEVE

[1] = Dynamic moisture sorption (DMS) assessment; type: physicochemical; conditions: 25° C.
Protocol: Dynamic moisture sorption (DMS) measurements were performed for each crystalline form using a VTI atmospheric microbalance, SGA-100 system (VTI Corp., Hialeah, Fla. 33016). A weighed sample was used and the humidity was set at the ambient value at the start of the analysis. The DMS analysis consisted of a scan rate of 5% RH/step over the full humidity range of 5% RH to 90% RH. The DMS run was performed isothermally at 25° C.

[2] = Solubility in buffers over 24 hours; type: physicochemical; conditions: pH>3, room temperature, FIG. 16
Protocol: Samples of the crystalline materials were evaluated over a 24 hour period at several pH ranges. The following buffer systems were used: • HCl buffer pH @ 1.15 • HCl buffer pH @ 1.94 • Potassium biphthate buffer pH @ 2.97 • Acetate buffer pH @ 4.17 • Acetate buffer pH @ 5.16 • Phosphate buffer pH @ 6.04 • Phosphate buffer pH @ 7.0
Samples (7-8 mg) of the crystalline materials were combined with 2 mL of each of the buffers in a 5 mL glass vial. The vials were then mounted onto an automatic rotator and rotate for 24 hours at room temperature. The resulting suspensions were filtered using a 0.45 μm filter (PVDF membrane) into a clean vial for HPLC analysis.

[3] = Thermal stability on storage, purity by HPLC; type: physicochemical; conditions: 40° C. (open container), 75% relative humidity, one month; for Purity Change: HPLC area percentage (% AUC)
Protocol: Weighed samples of the crystalline materials were stored at 40° C. (open container) and 75% relative humidity, for one month. The samples were then analyzed by the following HPLC method:
Column: Agilent Zorbox SB-C18, 4.6×250 mm, 5 μm (Part No. 880975-902). Mobile Phase A: 80% H2O, 20% MeCN, 0.01% TFA. Mobile Phase B: 80% MeCN, 20% H2O, 0.01% TFA. Flow rate: 1 mL/min. Injection Volume: 20 μL. Detector: 250 nm.
The purity of the samples was determined by HPLC area percentage (% AUC).

[4] = Differential scanning calorimetry (thermal stability); type: physicochemical; conditions: heating ramp 10° C./min
Protocol: Differential scanning calorimetry (DSC) experiments were performed using a TA Instruments Model Q-100 module with a Thermal Analyst controller. Data were collected and analyzed using TA Instruments Universal Analysis software. A sample of each crystalline form was accurately weighed into a covered aluminum pan. After a 5 minute isothermal equilibration period at 5° C., the sample was heated using a linear heating ramp of 10° C./min from 0° C. to 200° C.

[5] = Reslurrying of hemiedisylate salt form I and form II; type: physicochemical; conditions: EtOH/MTBE with or without water, room temperature
Protocol: (§1) Hemiedisylate salt form II (50 mg, 80 μmol) and hemiedisylate salt form I (50 mg, 80 μmol) were combined with a premixed solution of EtOH (420 μL) and MTBE (1.6 mL, 13 mmol). The mixture was capped and stirred at room temperature. The resulting solids were filtered and washed with dioxane to yield a solid (86 mg), which was determined to be hemiedisylate salt form II.
as §1, with “mmol). Water (20 μL) was added and the” for “mmol). The”, “solid (67” for “solid (86”

SMILES | pKi (AT1 receptor) | weight gain, humidity range 5% RH up to 90% RH ([1]; 5% RH to 90% RH) | weight gain when exposed to up to 70% RH [1] | solubility compared with the freebase [2] | thermal stability on storage [3] | Purity Change [3] [%] | temperature below which no significant thermal decomposition is seen (DSC) [4] [°C] | DMS moisture sorption/desorption behaviour ([1]; 5% RH to 90% RH) | relative stability of crystalline forms on reslurrying [5]
CCOc1nc(CC)c(CNC(=O)[C@@H](S)CC(C)C)n1Cc1ccc(-c2ccccc2C(=O)O)cc1F [compound of formula I, 4′-{2-ethoxy-4-ethyl-5-[((S)-2-mercapto-4-methylpentanoylamino)methyl]imidazol-1-ylmethyl}-3′-fluorobiphenyl-2-carboxylic acid] | ≥ 7.00 | – | – | – | – | – | – | – | –
CCOc1nc(CC)c(CNC(=O)[C@@H](S)CC(C)C)n1Cc1ccc(-c2ccccc2C(=O)O)cc1F [heminapadisylate form, Crystalline Heminapadisylate Salt of 4′-{2-Ethoxy-4-ethyl-5-[((S)-2-mercapto-4-methylpentanoylamino)methyl]imidazol-1-ylmethyl}-3′-fluorobiphenyl-2-carboxylic Acid] | – | about 0.97% | less than 0.68% | more soluble than the freebase | more stable than the previously known freebase form | −0.1 | ≥ 181 | – | –
CCOc1nc(CC)c(CNC(=O)[C@@H](S)CC(C)C)n1Cc1ccc(-c2ccccc2C(=O)O)cc1F [mono-oxalate salt, Crystalline Mono-oxalate Salt of 4′-{2-Ethoxy-4-ethyl-5-[((S)-2-mercapto-4-methylpentanoylamino)methyl]imidazol-1-ylmethyl}-3′-fluorobiphenyl-2-carboxylic Acid] | – | – | – | – | – | – | ≥ 140 | picks up moisture gradually from 5% RH to 90% RH, and loses the moisture during drying segment | –
CCOc1nc(CC)c(CNC(=O)[C@@H](S)CC(C)C)n1Cc1ccc(-c2ccccc2C(=O)O)cc1F [freebase form, 4′-{2-ethoxy-4-ethyl-5-[((S)-2-mercapto-4-methylpentanoylamino)methyl]imidazol-1-ylmethyl}-3′-fluorobiphenyl-2-carboxylic acid, reference compound] | – | – | – | – | – | −2.9 | – | – | –
CCOc1nc(CC)c(CNC(=O)[C@@H](S)CC(C)C)n1Cc1ccc(-c2ccccc2C(=O)O)cc1F [hemiedisylate form II, Crystalline Hemiedisylate Salt Form II of 4′-{2-Ethoxy-4-ethyl-5-[((S)-2-mercapto-4-methylpentanoylamino)methyl]imidazol-1-ylmethyl}-3′-fluorobiphenyl-2-carboxylic Acid] | – | about 0.16% | less than 0.10% | more soluble than the freebase | more stable than the previously known freebase form | −0.3 | ≥ 182 | – | more stable than crystalline hemiedisylate salt form I
CCOc1nc(CC)c(CNC(=O)[C@@H](S)CC(C)C)n1Cc1ccc(-c2ccccc2C(=O)O)cc1F [hemiedisylate salt form I, Crystalline Hemiedisylate Salt Form I of 4′-{2-Ethoxy-4-ethyl-5-[((S)-2-mercapto-4-methylpentanoylamino)methyl]imidazol-1-ylmethyl}-3′-fluorobiphenyl-2-carboxylic Acid] | – | about 0.38% | less than 0.26% | – | – | – | ≥ 158 | – | –
